Experiments:
[1] = test system: IL-17A in Human peripheral mononuclear cells; experiment: Human PBMC IL-17A assay; format: cell-based; settings: 72 h, EC50, antiCD3/antiCD28-coated beads, 3 days, alpha-LISA
Protocol: This assay measures the IL-17A inhibitory potential of test compounds in Human peripheral mononuclear cells.
Peripheral blood mononuclear cells (PBMC) were isolated from human buffy coats using density grade centrifugation (Lymphoprep, Medinor), washed twice in PBS and frozen at −150° C. for later use.
Test compounds were diluted in DMSO and 70 nL of titrated test and reference compounds were transferred by the Echo liquid handling system to a 384-well assay plate in to give a final concentration of 0.1% DMSO in the wells.
The PBMC were thawed, washed and suspended in RPMI-1640 supplemented with pen/strep, glutamax and 10% bovine calf serum. The cells were mixed with antiCD3/antiCD28-coated beads (1 cells pr one bead) (Milteney T-cell expansion kit), and immediately thereafter the cells were pipetted to the plate at 130,000c/well. The plate was incubated for 3 days in humidified air/CO2 (95%/5%) On day 3 the level of IL-17A in the culture supernatant is measured using alpha-LISA kit (Perkin Elmer). Cell viability was measured by adding 6 uL pr well Prestoblue© (Life Technologies) and incubating for 2 hours followed by fluorescent measurement (Ex535/Em615). EC50 values were calculated using a 4-parameter non-linear regression curve-fitting model. Donors may be pre-screened in order to select PBMC with a high secretion of IL-17A.

[2] = test system: IL-17A levels in human peripheral blood; experiment: tissue or blood; format: cell-based; settings: 72 h, read-out: Human Whole blood IL-17A (nM)
[3] = biological target: T1, human RORgt nuclear receptor (RORgT ligand binding domain protein) (Homo sapiens, UniProt P51449); experiment: ROR-gamma binding assay (Scintillation Proximity Assay, displacement of [3H]-25-hydroxycholesterol); settings: EC50, SPA, 15 nM [3H]-25-Hydroxycholesterol, RORgT LBD 12 nM
T1 construct: purchased Proteros Biostructures GmbH
T1 sequence (P51449 with tags, fused parts or gaps): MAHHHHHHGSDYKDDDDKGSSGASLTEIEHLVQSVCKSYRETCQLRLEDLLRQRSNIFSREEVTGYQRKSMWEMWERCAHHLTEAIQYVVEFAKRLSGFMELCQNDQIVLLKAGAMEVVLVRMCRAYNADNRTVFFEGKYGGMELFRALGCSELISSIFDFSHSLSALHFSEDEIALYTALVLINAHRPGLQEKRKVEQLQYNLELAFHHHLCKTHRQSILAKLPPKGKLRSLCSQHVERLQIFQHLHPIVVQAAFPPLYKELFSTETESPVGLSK
Protocol: This assay is used to evaluate the binding affinity of compounds to the ligand-binding pocket of the human RORgt nuclear receptor based on displacement of a radio-ligand. The EC50 values are calculated using a four parameter fit. Compounds binding with high affinity to RORgt will have low EC50 values.
The assay is a Scintillation Proximity Assay (SPA) that involves competition between an unlabeled test compound and tritium-labeled 25-hydroxycholesterol for binding to RORgT ligand binding domain (LBD) protein immobilized on the surface of SPA beads. These beads contain a scintillant that emits light if excited by a radioactive particle, and this light is detected using a scintillation counter. In this assay, tritium-labelled 25-hydroxycholesterol is used as radiotracer.
400 nL of titrated test and reference compounds in DMSO were transferred by the Echo liquid handling system to a 384-well assay plate followed by addition of 5 μL [3H]-25-Hydroxycholesterol (Perkin Elmer) and 35 μL diluted RORgT LBD protein with the following amino acid sequence (HIS-FLG-tag): MAHHHHHHGSDYKDDDDKGSSGASLTEIEHLVQSVCKSYRETCQLRLEDLLRQRSNIFSREEVTGYQRKSMWEMWERCAHHLTEAIQYVVEFAKRLSGFMELCQNDQIVLLKAGAMEVVLVRMCRAYNADNRTVFFEGKYGGMELFRALGCSELISSIFDFSHSLSALHFSEDEIALYTALVLINAHRPGLQEKRKVEQLQYNLELAFHHHLCKTHRQSILAKLPPKGKLRSLCSQHVERLQIFQHLHPIVVQAAFPPLYKELFSTETESPVGLSK (SEQ ID NO: 1) (Purchased from Proteros Biostructures GmbH). After 30 min of preincubation, 40 μL of HIS-TAG PVT SPA beads (Perkin Elmer) were added. The plates were then incubated for minimum 4 hours at room temperature in darkness before measuring the SPA signal using a MicroBeta plate scintillation counter. Final assay conditions were: 50 mM HEPES pH 7.4, 150 mM NaCl, 5 mM MgCl2, 0.1% BSA, 4 μg/well HIS-TAG PVT SPA Beads, 30 ng/well RORgT LBD (equal to a final concentration of 12 nM), 15 nM [^3H]-25-Hydroxycholesterol, 0.5% DMSO and varying concentrations of test compound in a total volume of 80 μL/well. EC50 values were calculated using a 4-parameter non-linear regression curve-fitting model.

`Cc1c(CN2CCN(C(=O)c3ccccc3)[C@@H](C)C2)cc(Cl)cc1Nc1nnc(C2(O)CC2)o1` [Example 6, [(2S)-4-[[5-chloro-3-[[5-(1-hydroxycyclopropyl)-1,3,4-oxadiazol-2-yl]amino]-2-methyl-phenyl]methyl]-2-methyl-piperazin-1-yl]-phenyl-methanone] showed an EC50 [1] of 0.234 µM, an EC50 [2] of 504 nM and an EC50 [3] of 0.0317 µM.
In the case of `Cc1c(CN2CCN(C(=O)c3ccccc3)[C@@H](C)C2)cc(Cl)cc1Nc1nnc(CCC#N)o1` [Example 7, 3-[5-[3-[[(3S)-4-benzoyl-3-methyl-piperazin-1-yl]methyl]-5-chloro-2-methyl-anilino]-1,3,4-oxadiazol-2-yl]propanenitrile], the EC50 [1] is reported as 0.0498 µM, the EC50 [2] is reported as 219 nM and the EC50 [3] is reported as 0.033 µM.
For `CCC(F)(F)C(=O)N1CCN(Cc2cc(Cl)cc(Nc3nnc(COC)o3)c2C)C[C@@H]1C` [Example 8, 1-[(2S)-4-[[5-chloro-3-[[5-(methoxymethyl)-1,3,4-oxadiazol-2-yl]amino]-2-methyl-phenyl]methyl]-2-methyl-piperazin-1-yl]-2,2-difluoro-butan-1-one], the EC50 [1] was 0.251 µM, the EC50 [2] was 497 nM and the EC50 [3] was 0.069 µM.
`COCc1nnc(Nc2cc(Cl)cc(CN3CCN(C(=O)c4ccccc4F)[C@@H](C)C3)c2C)o1` [Example 9, [(2S)-4-[[5-chloro-3-[[5-(methoxymethyl)-1,3,4-oxadiazol-2-yl]amino]-2-methyl-phenyl]methyl]-2-methyl-piperazin-1-yl]-(2-fluorophenyl)methanone] gave an EC50 [1] of 0.0993 µM, an EC50 [2] of 254 nM and an EC50 [3] of 0.0235 µM.
In the case of `COCc1nnc(Nc2cc(Cl)cc(CN3CCN(C(=O)C4CCC(F)(F)C4)[C@@H](C)C3)c2C)o1` (stereo partly drawn) [Example 10, [(2S)-4-[[5-chloro-3-[[5-(methoxymethyl)-1,3,4-oxadiazol-2-yl]amino]-2-methyl-phenyl]methyl]-2-methyl-piperazin-1-yl]-(3,3-difluorocyclopentyl)methanone], the EC50 [1] is reported as 0.173 µM, the EC50 [2] is reported as 296 nM and the EC50 [3] is reported as 0.0454 µM.
`CC[C@H](C)C(=O)N1CCN(Cc2cc(Cl)cc(Nc3nnc(COC)o3)c2C)C[C@@H]1C` [Example 11, (2S)-1-[(2S)-4-[[5-chloro-3-[[5-(methoxymethyl)-1,3,4-oxadiazol-2-yl]amino]-2-methyl-phenyl]methyl]-2-methyl-piperazin-1-yl]-2-methyl-butan-1-one] showed an EC50 [1] of 0.0926 µM, an EC50 [2] of 132 nM and an EC50 [3] of 0.0281 µM.
Compound `COCc1nnc(Nc2cc(Cl)cc(CN3CCN(C(=O)C4CCC4)[C@@H](C)C3)c2C)o1` [Example 12, [(2S)-4-[[5-chloro-3-[[5-(methoxymethyl)-1,3,4-oxadiazol-2-yl]amino]-2-methyl-phenyl]methyl]-2-methyl-piperazin-1-yl]-cyclobutyl-methanone] has an EC50 [1] of 0.128 µM, an EC50 [2] of 302 nM and an EC50 [3] of 0.0404 µM.
In the case of `COCc1nnc(Nc2cc(Cl)cc(CN3CCN(C(=O)C4CCCC4)[C@@H](C)C3)c2C)o1` [Example 13, [(2S)-4-[[5-chloro-3-[[5-(methoxymethyl)-1,3,4-oxadiazol-2-yl]amino]-2-methyl-phenyl]methyl]-2-methyl-piperazin-1-yl]-cyclopentyl-methanone], the EC50 [1] is reported as 0.0489 µM, the EC50 [2] is reported as 112 nM and the EC50 [3] is reported as 0.0147 µM.
`Cc1cc(CN2CCN(C(=O)C3CCC3)[C@@H](C)C2)c(C)c(Nc2nnc(C)o2)c1` [Example 14, cyclobutyl-[(2S)-4-[[2,5-dimethyl-3-[(5-methyl-1,3,4-oxadiazol-2-yl)amino]phenyl]methyl]-2-methyl-piperazin-1-yl]methanone] showed an EC50 [1] of 0.185 µM, an EC50 [2] of 372 nM and an EC50 [3] of 0.0611 µM.
`Cc1cc(CN2CCN(C(=O)C3CCC3)[C@@H](C)C2)c(C)c(Nc2nnc(CC#N)o2)c1` [Example 15, 2-[5-[3-[[(3S)-4-(cyclobutanecarbonyl)-3-methyl-piperazin-1-yl]methyl]-2,5-dimethyl-anilino]-1,3,4-oxadiazol-2-yl]acetonitrile] gave an EC50 [1] of 0.101 µM, an EC50 [2] of 421 nM and an EC50 [3] of 0.0638 µM.
`Cc1cc(CN2CCN(C(=O)C3CC3)[C@@H](C)C2)c(C)c(Nc2nnc(CC#N)o2)c1` [Example 16, 2-[5-[3-[[(3S)-4-(cyclopropanecarbonyl)-3-methyl-piperazin-1-yl]methyl]-2,5-dimethyl-anilino]-1,3,4-oxadiazol-2-yl]acetonitrile] showed an EC50 [1] of 0.237 µM, an EC50 [2] of 206 nM and an EC50 [3] of 0.223 µM.
`Cc1cc(CN2CCN(C(=O)C3CCC(F)(F)C3)[C@@H](C)C2)c(C)c(Nc2nnc(CC#N)o2)c1` (stereo partly drawn) [Example 17, 2-[5-[3-[[(3S)-4-(3,3-difluorocyclopentanecarbonyl)-3-methyl-piperazin-1-yl]methyl]-2,5-dimethyl-anilino]-1,3,4-oxadiazol-2-yl]acetonitrile] gave an EC50 [1] of 0.23 µM, an EC50 [2] of 131 nM and an EC50 [3] of 0.0545 µM.
Work on `Cc1c(CN2CCN(C(=O)C3CCCC3)[C@@H](C)C2)cc(Cl)cc1Nc1nnc(CC#N)o1` [Example 18, 2-[5-[5-chloro-3-[[4-(cyclopentanecarbonyl)-3-methyl-piperazin-1-yl]methyl]-2-methyl-anilino]-1,3,4-oxadiazol-2-yl]acetonitrile] yielded an EC50 [1] of 0.0698 µM, an EC50 [2] of 203 nM and an EC50 [3] of 0.0212 µM.
With `Cc1cc(CN2CCN(C(=O)C3CCC3)[C@@H](C)C2)c(C)c(Nc2nnc([C@@H](C)O)o2)c1` [Example 19, cyclobutyl-[(2S)-4-[[3-[[5-[(1R)-1-hydroxyethyl]-1,3,4-oxadiazol-2-yl]amino]-2,5-dimethyl-phenyl]methyl]-2-methyl-piperazin-1-yl]methanone] the EC50 [1] was 0.117 µM, the EC50 [2] was 216 nM and the EC50 [3] was 0.0923 µM.
`Cc1cc(CN2CCN(C(=O)C3CCC3)[C@@H](C)C2)c(C)c(Nc2nnc([C@H](C)O)o2)c1` [Example 20, cyclobutyl-[(2S)-4-[[3-[[5-[(1S)-1-hydroxyethyl]-1,3,4-oxadiazol-2-yl]amino]-2,5-dimethyl-phenyl]methyl]-2-methyl-piperazin-1-yl]methanone] showed an EC50 [1] of 0.189 µM, an EC50 [2] of 259 nM and an EC50 [3] of 0.113 µM.
In the case of `CCC(F)(F)C(=O)N1CCN(Cc2cc(C)cc(Nc3nnc([C@@H](C)O)o3)c2C)C[C@@H]1C` [Example 21, 2,2-difluoro-1-[(2S)-4-[[3-[[5-[(1R)-1-hydroxyethyl]-1,3,4-oxadiazol-2-yl]amino]-2,5-dimethyl-phenyl]methyl]-2-methyl-piperazin-1-yl]butan-1-one], the EC50 [1] is reported as 0.18 µM, the EC50 [2] is reported as 251 nM and the EC50 [3] is reported as 0.0717 µM.
`Cc1cc(CN2CCN(C(=O)C3CC3)[C@@H](C)C2)c(C)c(Nc2nnc([C@@H](C)O)o2)c1` [Example 22, cyclopropyl-[(2S)-4-[[3-[[5-[(1R)-1-hydroxyethyl]-1,3,4-oxadiazol-2-yl]amino]-2,5-dimethyl-phenyl]methyl]-2-methyl-piperazin-1-yl]methanone] was tested, and the EC50 [1] was 0.254 µM, the EC50 [2] was 355 nM and the EC50 [3] was 0.169 µM.

From patent US10934282B2, “Heteroaromatic modulators of the retinoid-related orphan receptor gamma” (LEO PHARMA A/S, priority 2016, dated 2021)
